According to US20130158043A1, “PAK INHIBITORS FOR THE TREATMENT OF CANCER” (AFRAXIS, INC., priority 2011, published 2013):

Key:
Experiment in all cases: In vitro PAK inhibition assay (Z'-LYTE, SelectScreen Kinase Profiling)
Format in all cases: biochemical
PAK-4 = PAK-4 (Homo sapiens, UniProt O96013); details: read-out: PAK4 IC50
Experimental: (§1) Compounds are screened in 1% DMSO (final) in the well. For 10 point titrations, 3-fold serial dilutions are conducted. All Peptide/Kinase Mixtures are diluted to a 2× working concentration in the appropriate Kinase Buffer
The 2X PAK-4/Ser/Thr 20 mixture is prepared in 50 mM HEPES pH 7.5, 0.01% BRIJ-35, 10 mM MgCl2, 1 mM EGTA. The final 10 μL Kinase Reaction consists of 0.1-0.75 ng PAK-4 and 2 μM Ser/Thr 20 in 50 mM HEPES pH 7.5, 0.01% BRIJ-35, 10 mM MgCl2, 1 mM EGTA. After the 1 hour Kinase Reaction incubation, 5 μL of a 1:256 dilution of Development Reagent A is added.
(§2) Bar-coded Corning, low volume NBS, black 384-well plate (Corning Cat. #3676) • 1. Add the following solutions to a well in a 384-well plate: 2.5 μL of 4× Test Compound OR (100 nL 100× Test Compound plus 2.4 μL kinase buffer) • 5 μL of 2× Peptide/Kinase (PAK) Mixture • 2.5 μL of 4×ATP Solution • 2. Shake the plate for 30-seconds • 3. Incubate the PAK Kinase Reaction at room temperature for 60-minutes • 4. Add 5 μL of Development Reagent Solution to each well • 5. Shake the plate for 30-seconds • 6. Incubate the Development Reaction for 60-minutes • 7. Determine the fluorescence using a fluorescence plate reader • 8. Analyze the fluorescence data
SelectScreen® Kinase Profiling Service uses XLfit from IDBS. The dose response curve is curve fit to model number 205 (sigmoidal dose-response model).

PAK2 (PAK65) = PAK2 (PAK65) (Homo sapiens, UniProt Q13177)
PAK2 (PAK65), sequence (Q13177 whole entry): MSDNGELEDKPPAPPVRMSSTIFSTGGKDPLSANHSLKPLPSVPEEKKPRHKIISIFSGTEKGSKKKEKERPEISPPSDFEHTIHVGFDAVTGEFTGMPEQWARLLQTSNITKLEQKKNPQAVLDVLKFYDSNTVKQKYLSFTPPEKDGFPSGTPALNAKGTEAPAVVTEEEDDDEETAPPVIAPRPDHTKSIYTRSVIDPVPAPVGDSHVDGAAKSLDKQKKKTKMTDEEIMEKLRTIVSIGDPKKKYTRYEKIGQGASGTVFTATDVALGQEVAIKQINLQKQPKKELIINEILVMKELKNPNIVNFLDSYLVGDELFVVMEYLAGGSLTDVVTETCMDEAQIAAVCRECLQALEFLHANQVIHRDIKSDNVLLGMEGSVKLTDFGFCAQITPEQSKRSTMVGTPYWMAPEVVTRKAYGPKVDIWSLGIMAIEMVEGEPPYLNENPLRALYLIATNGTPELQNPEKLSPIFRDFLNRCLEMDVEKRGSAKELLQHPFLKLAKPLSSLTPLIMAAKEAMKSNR
Experimental: as §1
The 2×PAK2 (PAK65)/Ser/Thr 20 mixture is prepared in 50 mM HEPES pH 7.5, 0.01% BRIJ-35, 10 mM MgCl2, 1 mM EGTA. The final 10 μL Kinase Reaction consists of 0.29-6 ng PAK2 (PAK65) and 2 μM Ser/Thr 20 in 50 mM HEPES pH 7.5, 0.01% BRIJ-35, 10 mM MgCl2, 1 mM EGTA.
as §2, with “Add” for “Bar-coded Corning, low volume NBS, black 384-well plate (Corning Cat. #3676) • 1. Add”
(§3) SelectScreen® Kinase Profiling Service uses XLfit from IDBS.

PAK1 = PAK1 (Homo sapiens, UniProt Q13153)
PAK1, sequence (Q13153 whole entry): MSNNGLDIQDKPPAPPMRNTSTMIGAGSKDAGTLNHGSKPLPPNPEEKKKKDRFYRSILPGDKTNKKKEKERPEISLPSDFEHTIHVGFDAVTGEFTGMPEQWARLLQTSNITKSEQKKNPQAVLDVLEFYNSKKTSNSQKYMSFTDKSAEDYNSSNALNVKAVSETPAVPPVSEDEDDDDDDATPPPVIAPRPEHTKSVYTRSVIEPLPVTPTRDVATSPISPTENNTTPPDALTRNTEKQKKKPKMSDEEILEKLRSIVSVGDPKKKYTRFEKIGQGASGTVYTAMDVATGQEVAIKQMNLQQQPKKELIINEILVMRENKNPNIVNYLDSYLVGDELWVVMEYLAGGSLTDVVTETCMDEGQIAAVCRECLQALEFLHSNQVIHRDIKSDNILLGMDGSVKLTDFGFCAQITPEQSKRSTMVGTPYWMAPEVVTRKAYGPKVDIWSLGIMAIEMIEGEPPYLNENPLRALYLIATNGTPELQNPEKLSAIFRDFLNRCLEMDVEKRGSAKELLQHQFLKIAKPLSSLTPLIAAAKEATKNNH
Experimental: as §1
The 2×PAK1/Ser/Thr 19 mixture is prepared in 50 mM HEPES pH 7.5, 0.01% BRIJ-35, 10 mM MgCl2, 1 mM EGTA.
as §2, with “Add” for “Bar-coded Corning, low volume NBS, black 384-well plate (Corning Cat. #3676) • 1. Add”
as §3

PAK3 = PAK3 (Homo sapiens, UniProt O75914)
PAK3, sequence (O75914 whole entry): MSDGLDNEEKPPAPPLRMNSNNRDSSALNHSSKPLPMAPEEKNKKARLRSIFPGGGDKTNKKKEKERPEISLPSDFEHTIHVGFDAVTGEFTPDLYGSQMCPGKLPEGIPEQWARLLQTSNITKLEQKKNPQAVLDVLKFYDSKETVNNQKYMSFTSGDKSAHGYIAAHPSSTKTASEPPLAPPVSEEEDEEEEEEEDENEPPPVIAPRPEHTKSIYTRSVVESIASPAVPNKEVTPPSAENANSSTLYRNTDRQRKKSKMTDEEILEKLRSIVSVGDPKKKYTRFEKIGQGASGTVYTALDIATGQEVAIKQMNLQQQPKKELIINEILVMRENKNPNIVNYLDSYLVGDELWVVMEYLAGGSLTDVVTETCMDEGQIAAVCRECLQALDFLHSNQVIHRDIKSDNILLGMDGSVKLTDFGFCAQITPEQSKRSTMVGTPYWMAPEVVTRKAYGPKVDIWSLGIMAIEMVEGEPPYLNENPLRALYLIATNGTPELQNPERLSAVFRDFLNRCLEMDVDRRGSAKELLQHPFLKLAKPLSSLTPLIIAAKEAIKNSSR
Experimental: as §1
The 2×PAK3/Ser/Thr 20 mixture is prepared in 50 mM HEPES pH 7.5, 0.01% BRIJ-35, 10 mM MgCl2, 1 mM EGTA.
as §2, with “Add” for “Bar-coded Corning, low volume NBS, black 384-well plate (Corning Cat. #3676) • 1. Add”
as §3

PAK-4, sequence (O96013 whole entry): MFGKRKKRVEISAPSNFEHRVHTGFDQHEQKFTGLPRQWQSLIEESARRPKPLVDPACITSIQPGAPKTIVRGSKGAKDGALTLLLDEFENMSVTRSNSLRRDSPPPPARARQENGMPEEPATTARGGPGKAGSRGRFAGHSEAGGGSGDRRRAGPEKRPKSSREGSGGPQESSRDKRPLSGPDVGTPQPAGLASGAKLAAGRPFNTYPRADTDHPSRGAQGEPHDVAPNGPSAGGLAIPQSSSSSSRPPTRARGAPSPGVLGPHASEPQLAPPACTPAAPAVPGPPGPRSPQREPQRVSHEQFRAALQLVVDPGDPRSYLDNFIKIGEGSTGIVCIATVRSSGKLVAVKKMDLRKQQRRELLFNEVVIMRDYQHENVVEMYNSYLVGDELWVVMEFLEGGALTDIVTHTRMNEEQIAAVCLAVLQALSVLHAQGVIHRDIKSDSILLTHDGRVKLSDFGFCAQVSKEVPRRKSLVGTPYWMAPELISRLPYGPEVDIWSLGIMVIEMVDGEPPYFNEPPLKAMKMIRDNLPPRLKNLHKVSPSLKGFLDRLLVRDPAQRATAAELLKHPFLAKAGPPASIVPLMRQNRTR

| IC50 (PAK-4) [nM] | IC50 (PAK2 (PAK65)) [nM] | IC50 (PAK1) [nM] | IC50 (PAK3) [nM] | SMILES |
| --- | --- | --- | --- | --- |
| 500 to 5000 | 500 to 5000 | 500 to 5000 | 500 to 5000 | CN1CCN(c2ccc(Nc3ncc4ccc(=O)n(Cc5occc5C5CC5)c4n3)cc2)CC1 |
| 500 to 5000 | 500 to 5000 | 50 to 500 | 500 to 5000 | CN1CCN(c2ccc(Nc3ncc4ccc(=O)n(Cc5ncsc5C5CC5)c4n3)cc2)CC1 |
| 500 to 5000 | < 50 | < 50 | < 50 | CCn1c(=O)c(-c2ccc(-c3nnco3)cc2Cl)cc2cnc(Nc3ccc(N4CCN(C)CC4)cc3)nc21 |
| 500 to 5000 | 50 to 500 | 50 to 500 | 500 to 5000 | CCS(=O)(=O)c1ccccc1Cn1c(=O)ccc2cnc(Nc3ccc(N4CCN(C)CC4)cc3)nc21 |
| ≥ 5000 | > 5000 | > 5000 | > 5000 | CCn1c(=O)c(-c2ccc(S(C)(=O)=O)cc2)cc2cnc(Nc3ccc(N4CCN(C)CC4)cc3)nc21 |
| 500 to 5000 | 50 to 500 | 50 to 500 | 50 to 500 | CC#Cc1cc2cnc(Nc3ccc(N4CCN(C)CC4)cc3)nc2n(Cc2c(F)cccc2C2CC2)c1=O |
| 50 to 500 | 50 to 500 | < 50 | 50 to 500 | CN1CCC(c2ccc(Nc3ncc4ccc(=O)n(Cc5c(F)cccc5C5CC5)c4n3)cc2)CC1 |
| ≥ 5000 | 500 to 5000 | 50 to 500 | 50 to 500 | CCn1c(=O)c(-c2cccc(S(C)(=O)=O)c2)cc2cnc(Nc3ccc(N4CCN(C)CC4)cc3)nc21 |
| 500 to 5000 | < 50 | < 50 | < 50 | CCS(=O)(=O)c1ccccc1Cn1c(=O)c(-c2ccccc2Cl)cc2cnc(Nc3ccc(N4CCN(C)CC4)cc3)nc21 |
| 500 to 5000 | 50 to 500 | 50 to 500 | 500 to 5000 | CC#Cc1cc2cnc(Nc3ccc(N4CCN(C)CC4)cc3)nc2n(Cc2ccccc2C(F)(F)F)c1=O |
| 50 to 500 | < 50 | < 50 | < 50 | CCn1c(=O)c(-c2ccc(-c3cccnc3F)cc2Cl)cc2cnc(Nc3ccc(N4CCN(C)CC4)cc3)nc21 |
| ≥ 5000 | – | – | – | CCn1c(=O)c(-c2ccc(-c3cncs3)cc2Cl)cc2cnc(Nc3ccc(N4CCN(C)CC4)cc3)nc21 |
| 500 to 5000 | < 50 | < 50 | < 50 | CCn1c(=O)c(-c2ccc(-c3noc(C)n3)cc2Cl)cc2cnc(Nc3ccc(C4CCN(C)CC4)cc3)nc21 |
| ≥ 5000 | 50 to 500 | 50 to 500 | 50 to 500 | CCn1c(=O)c(-c2ccc(-c3ccnc(C(N)=O)c3)cc2Cl)cc2cnc(Nc3ccc(C4CCN(C)CC4)cc3)nc21 |
| 500 to 5000 | < 50 | < 50 | 50 to 500 | CCn1c(=O)c(-c2ccc(-c3noc(C)n3)cc2Cl)cc2cnc(Nc3ccc(C4CCNCC4)cc3)nc21 |
| 500 to 5000 | < 50 | < 50 | < 50 | CCn1c(=O)c(-c2ccc(-c3cnc(C)s3)cc2Cl)cc2cnc(Nc3ccc(C4CCN(C)CC4)cc3)nc21 |
| ≥ 5000 | < 50 | < 50 | < 50 | CCN1CCC(c2ccc(Nc3ncc4cc(-c5ccc(-c6cccnc6C)cc5Cl)c(=O)n(CC)c4n3)cc2)CC1 |
| 500 to 5000 | < 50 | < 50 | < 50 | CCN1CCC(c2ccc(Nc3ncc4cc(-c5ccc(-c6ccc(C)nc6)cc5Cl)c(=O)n(CC)c4n3)cc2)CC1 |
| 500 to 5000 | < 50 | < 50 | < 50 | CCn1c(=O)c(-c2ccc(-c3cccnc3)cc2Cl)cc2cnc(Nc3ccc(CCN(C)C)cc3)nc21 |

| IC50 (PAK-4) [nM] | IC50 (PAK2 (PAK65)) [nM] | IC50 (PAK1) [nM] | IC50 (PAK3) [nM] | SMILES |
| --- | --- | --- | --- | --- |
| 500 to 5000 | < 50 | < 50 | < 50 | CCn1c(=O)c(-c2ccc(-c3cnc(C)s3)cc2Cl)cc2cnc(Nc3ccc(C4CCNCC4)cc3)nc21 |
| ≥ 5000 | < 50 | < 50 | < 50 | CCn1c(=O)c(-c2ccc(-c3cccnc3C)cc2Cl)cc2cnc(Nc3ccc(C4CCNCC4)cc3)nc21 |
| 500 to 5000 | < 50 | < 50 | 50 to 500 | CCn1c(=O)c(-c2ccc(-c3ccnc(C)c3)cc2Cl)cc2cnc(Nc3ccc(C4CCNCC4)c(F)c3)nc21 |
| 50 to 500 | < 50 | < 50 | < 50 | CCn1c(=O)c(-c2ccc(-c3cccnc3F)cc2Cl)cc2cnc(Nc3ccc(C4CCNCC4)cc3)nc21 |
| 50 to 500 | < 50 | < 50 | < 50 | CCn1c(=O)c(-c2ccc(-c3cccnc3F)cc2Cl)cc2cnc(Nc3ccc(C4CCN(C)CC4)cc3)nc21 |
| 500 to 5000 | < 50 | < 50 | < 50 | CCn1c(=O)c(-c2ccc(-c3cccnc3F)cc2Cl)cc2cnc(Nc3ccc(C4CCN5CCCC5C4)cc3)nc21 (centres unmarked) |
| 500 to 5000 | < 50 | < 50 | < 50 | CCn1c(=O)c(-c2ccc(-c3noc(C)n3)cc2Cl)cc2cnc(Nc3ccc(CCN(C)C)cc3)nc21 |
| 500 to 5000 | < 50 | < 50 | < 50 | CCN1CCC(c2ccc(Nc3ncc4cc(-c5ccc(-c6noc(C)n6)cc5Cl)c(=O)n(CC)c4n3)cc2)CC1 |
| ≥ 5000 | < 50 | < 50 | < 50 | Cc1nc(-c2ccc(-c3cc4cnc(Nc5ccc(C6CCN(C)CC6)cc5)nc4n(C)c3=O)c(Cl)c2)no1 |
| ≥ 5000 | 500 to 5000 | 500 to 5000 | 500 to 5000 | CCn1c(=O)c(-c2ccc(-c3cccnc3C)cc2)cc2cnc(Nc3ccc(C4CCN(C)CC4)cc3)nc21 |
| ≥ 5000 | 50 to 500 | 50 to 500 | 50 to 500 | CCn1c(=O)c(-c2ccc(-c3cccnc3C)cc2F)cc2cnc(Nc3ccc(C4CCN(C)CC4)cc3)nc21 |
| 50 to 500 | < 50 | < 50 | < 50 | CCn1c(=O)c(-c2ccc(-c3cnc(C)cn3)cc2Cl)cc2cnc(Nc3ccc(C4CCN(C)CC4)cc3)nc21 |
| 500 to 5000 | < 50 | < 50 | < 50 | CCn1c(=O)c(-c2ccc(-c3nccnc3C)cc2Cl)cc2cnc(Nc3ccc(C4CCN(C)CC4)cc3)nc21 |
| 500 to 5000 | < 50 | < 50 | < 50 | CCn1c(=O)c(-c2ccc(-c3ccnc(C)n3)cc2Cl)cc2cnc(Nc3ccc(C4CCN(C)CC4)cc3)nc21 |
| 500 to 5000 | < 50 | < 50 | < 50 | CCn1c(=O)c(-c2ccc(-c3cncc(C)n3)cc2Cl)cc2cnc(Nc3ccc(C4CCN(C)CC4)cc3)nc21 |
| ≥ 5000 | > 5000 | > 5000 | > 5000 | CCn1c(=O)c(-c2ccc(-c3cccnc3C)nc2)cc2cnc(Nc3ccc(C4CCN(C)CC4)cc3)nc21 |
| ≥ 5000 | 50 to 500 | < 50 | < 50 | CN(C)CCc1ccc(Nc2ncc3cc(-c4cc(N(C)C)c(-c5cccnc5)cc4Cl)c(=O)n(C)c3n2)cc1 |
| ≥ 5000 | < 50 | < 50 | 50 to 500 | Cc1cc(-c2nccnc2C)ccc1-c1cc2cnc(Nc3ccc(C4CCN(C)CC4)cc3)nc2n(C)c1=O |
| ≥ 5000 | < 50 | < 50 | < 50 | CCN1CCN(c2ccc(Nc3ncc4cc(-c5ccc(-c6cccnc6)cc5Cl)c(=O)n(CC)c4n3)cc2F)CC1 [drawing 727] |
